From patent US20080020048A1, “Treatment of Respiratory Disease” (priority 2004, published 2008)

Assays:
[1] = tested on: asthma; conditions: single administration of metered-dose aerosol; cited from earlier work
[2] = Glycopyrrolate therapy, summary of findings of the studies; format: in vivo
Excerpt: Further, it is apparent that different dosages of the drug, without side-effects, are essentially equivalent in effect. […] This makes the medicament particularly suitable for the treatment of bronchospasm, or as a rescue medication.

[3] = tested on: asthma; conditions: inhaled; cited from earlier work

C[N+]1(C)CCC(OC(=O)C(O)(c2ccccc2)C2CCCC2)C1 (centres unmarked) [glycopyrrolate]
Period of bronchodilation [1]: 12 h | Onset of bronchodilation ([2]; in vivo): high and immediate | Tachycardia ([2]; problems associated with anti-muscarinics): apparently absent | Duration of effective treatment [3]: up to 12 hours | Duration of effective treatment, maximal [3]: up to 8 hours
